Calls of active or inactive are those of the source. No cut-off for these calls is given here.
Legend:
[1] = Binding affinity to TGTCAGCGA oligonucleotide DNA sequence (unknown origin) at 50 nM incubated for 16 hrs by PCR based Bind-n-Seq analysis
[2] = Binding affinity to AGTCAGCCT oligonucleotide DNA sequence (unknown origin) at 50 nM incubated for 16 hrs by PCR based Bind-n-Seq analysis
[3] = Binding affinity to TGTCAGCCT oligonucleotide DNA sequence (unknown origin) at 50 nM incubated for 16 hrs by PCR based Bind-n-Seq analysis
[4] = Binding affinity to ATGTCTGCC oligonucleotide DNA sequence (unknown origin) at 50 nM incubated for 16 hrs by PCR based Bind-n-Seq analysis
[5] = Binding affinity to TGGCAGACA oligonucleotide DNA sequence (unknown origin) at 50 nM incubated for 16 hrs by PCR based Bind-n-Seq analysis
[6] = Binding affinity to GGTTGACAT oligonucleotide DNA sequence (unknown origin) at 50 nM incubated for 16 hrs by PCR based Bind-n-Seq analysis
[7] = Binding affinity to TGGCAGACT oligonucleotide DNA sequence (unknown origin) at 50 nM incubated for 16 hrs by PCR based Bind-n-Seq analysis
[8] = Binding affinity to TAGTCAGCC oligonucleotide DNA sequence (unknown origin) at 50 nM incubated for 16 hrs by PCR based Bind-n-Seq analysis
[9] = Binding affinity to GGCTGACTG oligonucleotide DNA sequence (unknown origin) at 50 nM incubated for 16 hrs by PCR based Bind-n-Seq analysis
[10] = Binding affinity to GTGTCAGCC oligonucleotide DNA sequence (unknown origin) at 50 nM incubated for 16 hrs by PCR based Bind-n-Seq analysis
[11] = Binding affinity to AGAAAGGCG oligonucleotide DNA sequence (unknown origin) at 50 nM incubated for 16 hrs by PCR based Bind-n-Seq analysis
[12] = Binding affinity to TATGGCTCA oligonucleotide DNA sequence (unknown origin) at 50 nM incubated for 16 hrs by PCR based Bind-n-Seq analysis
[13] = Binding affinity to GGGCAGAAA oligonucleotide DNA sequence (unknown origin) at 50 nM incubated for 16 hrs by PCR based Bind-n-Seq analysis
[14] = Binding affinity to AAAGGGTAA oligonucleotide DNA sequence (unknown origin) at 50 nM incubated for 16 hrs by PCR based Bind-n-Seq analysis
[15] = Binding affinity to AAAGAAGGC oligonucleotide DNA sequence (unknown origin) at 50 nM incubated for 16 hrs by PCR based Bind-n-Seq analysis
[16] = Binding affinity to ATCGGCAAA oligonucleotide DNA sequence (unknown origin) at 50 nM incubated for 16 hrs by PCR based Bind-n-Seq analysis
[17] = Binding affinity to AAAGGCCGA oligonucleotide DNA sequence (unknown origin) at 50 nM incubated for 16 hrs by PCR based Bind-n-Seq analysis
[18] = Binding affinity to AAAGGAATC oligonucleotide DNA sequence (unknown origin) at 50 nM incubated for 16 hrs by PCR based Bind-n-Seq analysis
[19] = Binding affinity to CCTTTCGGC oligonucleotide DNA sequence (unknown origin) at 50 nM incubated for 16 hrs by PCR based Bind-n-Seq analysis
[20] = Binding affinity to AGGCGAAAT oligonucleotide DNA sequence (unknown origin) at 50 nM incubated for 16 hrs by PCR based Bind-n-Seq analysis

Row | Activity [1] | Activity [2] | Activity [3] | Activity [4] | Activity [5] | Activity [6] | Activity [7] | Activity [8] | Activity [9] | Activity [10] | Activity [11] | Activity [12] | Activity [13] | Activity [14] | Activity [15] | Activity [16] | Activity [17] | Activity [18] | Activity [19] | Activity [20] | SMILES
1 | Active | Active | Active | Active | Active | Active | Active | Active | Active | Active | – | – | – | – | – | – | – | – | – | – | CC(=O)Nc1cn(C)c(C(=O)Nc2cn(C)c(C(=O)NCCOCCOCC(=O)Nc3cn(C)c(C(=O)Nc4cc(C(=O)Nc5cc(C(=O)NCCCC(=O)Nc6cn(C)c(C(=O)Nc7cc(C(=O)Nc8cc(C(=O)NCCC(=O)Nc9cn(C)c(C(=O)Nc%10cc(C(=O)Nc%11cc(C(=O)NCCC(=O)NCCCN(C)CCCNC(=O)CCOCCOCCOCCOCCOCCOCCOCCOCCOCCOCCOCCOCCNC(=O)CCCC[C@@H]%12SC[C@@H]%13NC(=O)N[C@@H]%13%12)n(C)c%11)n(C)c%10)n9)n(C)c8)n(C)c7)n6)n(C)c5)n(C)c4)n3)n2)n1
2 | – | – | – | – | – | – | – | – | – | – | Active | Active | Active | Active | Active | Active | Active | Active | Active | Active | CC(=O)Nc1cn(C)c(C(=O)Nc2cn(C)c(C(=O)Nc3cc(C(=O)NCCC(=O)Nc4cn(C)c(C(=O)Nc5cc(C(=O)Nc6cc(C(=O)NCCCC(=O)Nc7cn(C)c(C(=O)Nc8cc(C(=O)NCCOCCOCC(=O)Nc9cn(C)c(C(=O)Nc%10cc(C(=O)Nc%11cc(C(=O)NCCC(=O)NCCCN(C)CCCNC(=O)CCOCCOCCOCCOCCOCCOCCOCCOCCOCCOCCOCCOCCNC(=O)CCCC[C@@H]%12SC[C@@H]%13NC(=O)N[C@@H]%13%12)n(C)c%11)n(C)c%10)n9)n(C)c8)n7)n(C)c6)n(C)c5)n4)n(C)c3)n2)n1
